A word on the IC50: it is the concentration needed to halve the response being measured.

In the experiment the target is Human Factor D (Homo sapiens (Human), UniProt P00746). The experiment in a line: Human Factor D Assay. The experiment is classed as biochemical. The conditions noted are these: Human Factor D 80 nM, substrate Z-L-Lys-SBzl, DTNB, A405; read-out: IC50 (Stars). As for the experimental part:
Example 2. Human Factor D Assay
Human Factor D (purified from human serum, Complement Technology, Inc.) at 80 nM final concentration is incubated with test compound at various concentrations for 5 min at room temperature in 50 mM Tris, 1M NaCl, pH 7.5. A synthetic substrate Z-L-Lys-SBzl and DTNB (Ellman's reagent) are added to final concentrations of 100 µM each. Absorbance at 405 nm (A405) is recorded at 30 second intervals for 30 minutes using a microplate spectrophotometer. IC50 values are calculated by nonlinear regression of Complement Factor D reaction rates as a function of test compound concentration.

Sequence of Human Factor D (P00746 26-253): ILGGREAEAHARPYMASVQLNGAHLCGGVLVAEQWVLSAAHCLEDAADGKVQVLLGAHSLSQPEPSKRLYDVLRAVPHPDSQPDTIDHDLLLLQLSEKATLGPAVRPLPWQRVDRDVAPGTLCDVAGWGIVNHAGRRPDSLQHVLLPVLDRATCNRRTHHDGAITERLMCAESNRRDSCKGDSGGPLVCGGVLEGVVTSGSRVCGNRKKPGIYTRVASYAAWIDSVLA

As for `CC(=O)c1nn(CC(=O)N2C3CC34COCC=CCOCc3ccc(Br)nc3NC(=O)[C@@H]2C4)c2ccc(-c3cnc(C)nc3)cc12` (stereo partly drawn) [Compound T-1, (43S)-44-(2-(3-acetyl-5-(2-methylpyrimidin-5-yl)-1H-indazol-1-yl)acetyl)-16-bromo-6,11-dioxa-44,2-diaza-1(2,3)-pyridina-4(3,1)-bicyclo[3.1.0]hexanacyclododecaphan-8-en-3-one], the IC50 was less than 1000 nM.
As for `CC(=O)c1nn(CC(=O)N2C3CC34CNC(=O)CCC=CCOCc3ccc(Br)nc3NC(=O)[C@@H]2C4)c2ccc(-c3cnc(C)nc3)cc12` (stereo partly drawn) [Compound T-2, (43S)-44-(2-(3-acetyl-5-(2-methylpyrimidin-5-yl)-1H-indazol-1-yl)acetyl)-16-bromo-13-oxa-44,2,6-triaza-1(2,3)-pyridina-4(3,1)-bicyclo[3.1.0]hexanacyclotetradecaphan-10-ene-3,7-dione], the figure is less than 1000 nM.
As for `CC(=O)c1nn(CC(=O)N2[C@H]3C[C@@]4(COCC=CCOCc5ccc(Br)nc5NC3=O)C[C@@H]24)c2ccc(-c3cnc(C)nc3)cc12` [Compound T-3, (41R,43S,45S)-42-(2-(3-acetyl-5-(2-methylpyrimidin-5-yl)-1H-indazol-1-yl)acetyl)-16-bromo-6,11-dioxa-42,2-diaza-1(2,3)-pyridina-4(3,5)-bicyclo[3.1.0]hexanacyclododecaphan-8-en-3-one], the figure is less than 1000 nM.
For `CC(=O)c1nn(CC(=O)N2[C@H]3C[C@@]4(COCCCCOCc5ccc(Br)nc5NC3=O)C[C@@H]24)c2ccc(-c3cnc(C)nc3)cc12` [Compound T-4, (41R,43S,45S)-42-(2-(3-acetyl-5-(2-methylpyrimidin-5-yl)-1H-indazol-1-yl)acetyl)-16-bromo-6,11-dioxa-42,2-diaza-1(2,3)-pyridina-4(3,5)-bicyclo[3.1.0]hexanacyclododecaphan-3-one] the value was less than 1000 nM; for `CC(=O)c1nn(CC(=O)N2[C@H]3C[C@@]4(COCC=CCOCc5cccnc5NC3=O)C[C@@H]24)c2ccc(-c3cnc(C)nc3)cc12` [Compound T-5, (41R,43S,45S)-42-(2-(3-acetyl-5-(2-methylpyrimidin-5-yl)-1H-indazol-1-yl)acetyl)-6,11-dioxa-42,2-diaza-1(2,3)-pyridina-4(3,5)-bicyclo[3.1.0]hexanacyclododecaphan-8-en-3-one], less than 1000 nM; for `CC(=O)c1nn(CC(=O)N2[C@H]3C[C@]4(C[C@@H]24)CN(C)CC=CCOCc2ccc(Br)nc2NC3=O)c2ccc(-c3cnc(C)nc3)cc12` [Compound T-6, (41R,43S,45R)-42-(2-(3-acetyl-5-(2-methylpyrimidin-5-yl)-1H-indazol-1-yl)acetyl)-16-bromo-6-methyl-11-oxa-42,2,6-triaza-1(2,3)-pyridina-4(3,5)-bicyclo[3.1.0]hexanacyclododecaphan-8-en-3-one], less than 1000 nM.
For `CC(=O)c1nn(CC(=O)N2[C@H]3C[C@]4(C[C@@H]24)CN(C)CCCCOCc2ccc(Br)nc2NC3=O)c2ccc(-c3cnc(C)nc3)cc12` [Compound T-7, (41R,43S,45R)-42-(2-(3-acetyl-5-(2-methylpyrimidin-5-yl)-1H-indazol-1-yl)acetyl)-16-bromo-6-methyl-11-oxa-42,2,6-triaza-1(2,3)-pyridina-4(3,5)-bicyclo[3.1.0]hexanacyclododecaphan-3-one], the half-inhibitory concentration (IC50) was less than 1000 nM.
For `CC(=O)c1nn(CC(=O)N2[C@H]3C[C@]4(C[C@@H]24)CN(C)CCCCC=Cc2ccc(Br)nc2NC3=O)c2ccc(-c3cnc(C)nc3)cc12` [Compound T-8, (41R,43S,45R)-42-(2-(3-acetyl-5-(2-methylpyrimidin-5-yl)-1H-indazol-1-yl)acetyl)-16-bromo-6-methyl-42,2,6-triaza-1(2,3)-pyridina-4(3,5)-bicyclo[3.1.0]hexanacyclododecaphan-11-en-3-one] the value was less than 1000 nM.
As for `CC(=O)c1nn(CC(=O)N2[C@H]3C[C@@]4(CNS(=O)(=O)CCC=Cc5ccc(Br)nc5NC3=O)C[C@@H]24)c2ccc(-c3cnc(C)nc3)cc12` [Compound T-9, (41R,43S,45R)-42-(2-(3-acetyl-5-(2-methylpyrimidin-5-yl)-1H-indazol-1-yl)acetyl)-16-bromo-7-thia-42,2,6-triaza-1(2,3)-pyridina-4(3,5)-bicyclo[3.1.0]nexanacycloundecaphan-10-en-3-one 7,7-dioxide], the figure is less than 1000 nM.
On to `CC(=O)c1nn(CC(=O)N2[C@H]3C[C@@]4(COCC=CCOCc5ccc(Br)nc5NC3=O)C[C@@H]24)c2ccccc12` [Compound T-10, (41R,43S,45S)-42-(2-(3-acetyl-1H-indazol-1-yl)acetyl)-16-bromo-6,11-dioxa-42,2-diaza-1(2,3)-pyridina-4(3,5)-bicyclo[3.1.0]hexanacyclododecaphan-8-en-3-one], for which the IC50 was less than 1000 nM.
Turning to `CC(=O)c1nn(CC(=O)N2[C@H]3C[C@@]4(COCC=CCOCc5ccc(Br)nc5NC3=O)C[C@@H]24)c2cnccc12` [Compound T-11, (41R,43S,45S)-42-(2-(3-acetyl-1H-pyrazolo[3,4-c]pyridin-1-yl)acetyl)-16-bromo-6,11-dioxa-42,2-diaza-1(2,3)-pyridina-4(3,5)-bicyclo[3.1.0]hexanacyclododecaphan-8-en-3-one], the half-inhibitory concentration (IC50) is less than 1000 nM.
As for `CC(=O)c1nn(CC(=O)N2[C@H]3C[C@@]4(COCC=CCOCc5ccc(Br)nc5NC3=O)C[C@@H]24)c2c(C)cccc12` [Compound T-12, (41R,43S,45S)-42-(2-(3-acetyl-7-methyl-1H-indazol-1-yl)acetyl)-16-bromo-6,11-dioxa-42,2-diaza-1(2,3)-pyridina-4(3,5)-bicyclo[3.1.0]hexanacyclododecaphan-8-en-3-one], the figure is less than 1000 nM; as for `CC(=O)c1nn(CC(=O)N2[C@H]3C[C@]4(C[C@@H]24)CN(C)CCCCC=Cc2ccc(Br)nc2NC3=O)c2cnccc12` [Compound T-13, (41R,43S,45R)-42-(2-(3-acetyl-1H-pyrazolo[3,4-c]pyridin-1-yl)acetyl)-16-bromo-6-methyl-42,2,6-triaza-1(2,3)-pyridina-4(3,5)-bicyclo[3.1.0]hexanacyclododecaphan-11-en-3-one], less than 1000 nM.
For `CC(=O)c1cc2n(n1)CC(=O)N1[C@@H](C[C@@]3(C)C[C@@H]13)C(=O)Nc1nc(Br)ccc1COC/C=C/CCNC2=O` [Compound T-14, (18aS,19aR,20aR,E)-2-acetyl-15-bromo-19a-methyl-6,7,12,17,18a,19,19a,20,20a,23-decahydro-4H-cyclopropa[4,5]pyrrolo[2,1-g]pyrazolo[1,5-k]pyrido[3,2-c][1,5,8,11,14]oxatetraazacyclononadecine-4,18,22(5H,10H)-trione] the value was greater than 10000 nM; for `CC(=O)c1cc2n(n1)CC(=O)N1[C@@H](C[C@@]3(C)C[C@@H]13)C(=O)Nc1nc(Br)ccc1COC/C=C\CCNC2=O` [Compound T-15, (18aS,19aR,20aR,Z)-2-acetyl-15-bromo-19a-methyl-6,7,12,17,18a,19,19a,20,20a,23-decahydro-4H-cyclopropa[4,5]pyrrolo[2,1-g]pyrazolo[1,5-k]pyrido[3,2-c][1,5,8,11,14]oxatetraazacyclononadecine-4,18,22(5H,10H)-trione], greater than 10000 nM; for `CC(=O)c1nn(CC(=O)N2[C@H]3C[C@@]4(CNS(=O)(=O)CCC=Cc5ccc(Br)nc5NC3=O)C[C@@H]24)c2cnccc12` [Compound T-16, (41R,43S,45R)-42-(2-(3-acetyl-1H-pyrazolo[3,4-c]pyridin-1-yl)acetyl)-16-bromo-7-thia-42,2,6-triaza-1(2,3)-pyridina-4(3,5)-bicyclo[3.1.0]hexanacycloundecaphan-10-en-3-one 7,7-dioxide], less than 1000 nM.
As for `CC(=O)c1nn(CC(=O)N2[C@H]3C[C@]4(C[C@@H]24)Cn2cc(nn2)COCc2ccc(Br)nc2NC3=O)c2ccc(-c3cnc(C)nc3)cc12` [Compound T-18, (31R,33S,35R,Z)-32-(2-(3-acetyl-5-(2-methylpyrimidin-5-yl)-1H-indazol-1-yl)acetyl)-66-bromo-11H-8-oxa-32,5-diaza-6(2,3)-pyridina-1(1,4)-triazola-3(5,3)-bicyclo[3.1.0]hexanacyclononaphan-4-one], the figure is less than 1000 nM.
For the compound `CC(=O)c1nn(CC(=O)N2[C@H]3C[C@@]4(C=CCCCCN(C)C(=O)Cc5ccc(Br)nc5NC3=O)C[C@@H]24)c2ccc(-c3cnc(C)nc3)cc12` [Compound T-19, (41R,43S,45R)-42-(2-(3-acetyl-5-(2-methylpyrimidin-5-yl)-1H-indazol-1-yl)acetyl)-16-bromo-11-methyl-42,2,11-triaza-1(2,3)-pyridina-4(3,5)-bicyclo[3.1.0]hexanacyclotridecaphan-5-ene-3,12-dione], the IC50 is less than 1000 nM.
As for `CC(=O)c1nn2c3c(cc(-c4cnc(C)nc4)cc13)CCC=CCCCC(=O)NC[C@@]13C[C@@H](C(=O)Nc4nc(Br)ccc4C)N(C(=O)C2)[C@@H]1C3` [Compound T-20, (41R,43S,45R)-13-acetyl-N-(6-bromo-3-methylpyridin-2-yl)-15-(2-methylpyrimidin-5-yl)-3,7-dioxo-11H-42,6-diaza-1(1,7)-indazola-4(2,5)-bicyclo[3.1.0]hexanacyclotetradecaphan-11-ene-43-carboxamide], the figure is less than 1000 nM; as for `CC(=O)c1nn2c3c(cc(-c4cnc(C)nc4)cc13)CC=CCCCC(=O)NC[C@@]13C[C@@H](C(=O)Nc4nc(Br)ccc4C)N(C(=O)C2)[C@@H]1C3` [Compound T-21, (41R,43S,45R)-13-acetyl-N-(6-bromo-3-methylpyridin-2-yl)-15-(2-methylpyrimidin-5-yl)-3,7-dioxo-11H-42,6-diaza-1(1,7)-indazoia-4(2,5)-bicyclo[3.1.0]hexanacyclotridecaphan-11-ene-43-carboxamide], less than 1000 nM.

Source of the values: patent publication US11053253B2, “Macrocyclic compounds for treatment of medical disorders” (Achillion Pharmaceuticals, Inc., priority 2017, dated 2021).
